# Data reported in patent publication US20230265116A1, “DEGRADATION OF (EGFR) BY CONJUGATION OF EGFR INHIBITORS WITH E3 LIGASE LIGAND AND METHODS OF USE” (BEIGENE, LTD., priority 2020, published 2023).
# Legend:
# [1] = system: EGFR Del19/T790M/C797S (BaF3-DTC cells); assay: EGFR degradation HTRF assay, BaF3-DTC cells; assay type: cell-based; conditions: 16h treatment; for DTC Dmax (%): maximum percentage of degradation; for DC50: read-out: DTC DC50
# How it was run: (§1)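 Cells treated 16 h at 37 °C, 5% CO2 in medium with 0.2% DMSO; top final concentration 10 uM, 5-fold dilution, 8 doses. Lysates read by HTRF (665/620 nm); degradation % versus DMSO high control, DC50 from four-parameter fit, Dmax as maximal degradation.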
# [2] = target: T1, EGFR L858R/T790M/C797S (BaF3-LTC cells) (Homo sapiens, UniProt P00533, C797S/L858R/T790M); assay: EGFR degradation HTRF assay, BaF3-LTC cells; assay type: cell-based; conditions: BaF3-LTC, 16h treatment; for Dmax: maximum percentage of degradation, read-out: LTC Dmax (%); for DC50: read-out: LTC DC50
# T1 construct: expressed in transfected cells; host or cells: BaF3
# How it was run: as §1
# T1 sequence (P00533 25-1210 T790M/C797S/L858R): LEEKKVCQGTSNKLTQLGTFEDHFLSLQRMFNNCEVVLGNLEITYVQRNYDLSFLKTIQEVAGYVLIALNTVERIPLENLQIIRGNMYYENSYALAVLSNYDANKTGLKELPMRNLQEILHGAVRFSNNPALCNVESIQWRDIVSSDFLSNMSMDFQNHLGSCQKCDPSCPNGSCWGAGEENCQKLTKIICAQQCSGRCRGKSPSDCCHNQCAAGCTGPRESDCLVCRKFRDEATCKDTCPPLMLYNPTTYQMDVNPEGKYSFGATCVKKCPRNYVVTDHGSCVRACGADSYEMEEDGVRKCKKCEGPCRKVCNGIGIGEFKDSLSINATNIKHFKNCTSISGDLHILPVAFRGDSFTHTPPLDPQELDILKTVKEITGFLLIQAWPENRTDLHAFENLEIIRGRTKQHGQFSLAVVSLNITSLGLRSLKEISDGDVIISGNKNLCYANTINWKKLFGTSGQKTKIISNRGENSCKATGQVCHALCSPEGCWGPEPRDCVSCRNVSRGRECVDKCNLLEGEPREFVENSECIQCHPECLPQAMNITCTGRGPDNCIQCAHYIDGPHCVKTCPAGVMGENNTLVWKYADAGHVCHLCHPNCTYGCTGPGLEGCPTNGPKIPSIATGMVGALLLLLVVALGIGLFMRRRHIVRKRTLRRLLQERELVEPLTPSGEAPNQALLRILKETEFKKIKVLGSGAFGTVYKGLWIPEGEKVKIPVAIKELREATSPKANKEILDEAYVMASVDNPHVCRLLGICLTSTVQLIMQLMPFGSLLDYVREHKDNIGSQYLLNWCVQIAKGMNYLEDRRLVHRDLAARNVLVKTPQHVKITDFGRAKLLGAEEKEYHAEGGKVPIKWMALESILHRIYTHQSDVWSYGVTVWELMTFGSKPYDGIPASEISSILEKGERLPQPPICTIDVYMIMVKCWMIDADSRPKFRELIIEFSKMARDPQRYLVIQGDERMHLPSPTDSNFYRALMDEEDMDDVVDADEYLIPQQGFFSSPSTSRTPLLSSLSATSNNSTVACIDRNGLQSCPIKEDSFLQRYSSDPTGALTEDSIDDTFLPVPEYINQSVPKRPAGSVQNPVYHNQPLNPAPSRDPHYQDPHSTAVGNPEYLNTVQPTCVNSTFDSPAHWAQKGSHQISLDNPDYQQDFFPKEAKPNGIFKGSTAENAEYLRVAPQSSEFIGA
structure (smiles),measurement,setting,value
"CCc1cc(Nc2ncc(Br)c(Nc3ccc4nc(C)ccc4c3P(C)(C)=O)n2)c(OC)cc1N1CCC(N2CCN(C(=O)[C@@H]3CCN(c4cc(F)c(C5CCC(=O)NC5=O)c(F)c4)C3)CC2)CC1 (stereo partly drawn) [Example 208, 3-(4-((R)-3-(4-(1-(4-((5-bromo-4-((5-(dimethylphosphoryl)-2-methylquinolin-6-yl)amino)pyrimidin-2-yl)amino)-2-ethyl-5-methoxyphenyl)piperidin-4-yl)piperazine-1-carbonyl)pyrrolidin-1-yl)-2,6-difluorophenyl)piperidine-2,6-dione]",DTC Dmax (%),[1],97.62%
same,DC50,[1],1.47 nM
same,Dmax,[2],93.9%
same,DC50,[2],4.13 nM
"CCc1cc(Nc2ncc(Br)c(Nc3ccc4nccnc4c3P(C)(C)=O)n2)c(OC)cc1N1CCC(N2CCN(C(=O)C3CCN(c4ccc5nn(C6CCC(=O)NC6=O)cc5c4)CC3)CC2)CC1 (stereo not drawn) [Example 308, 3-(5-(4-(4-(1-(4-((5-bromo-4-((5-(dimethylphosphoryl)quinoxalin-6-yl)amino)pyrimidin-2-yl)amino)-2-ethyl-5-methoxyphenyl)piperidin-4-yl)piperazine-1-carbonyl)piperidin-1-yl)-2H-indazol-2-yl)piperidine-2,6-dione]",DTC Dmax (%),[1],93.79%
same,DC50,[1],5.01 nM
same,Dmax,[2],91.8%
same,DC50,[2],15.6 nM
"CCc1cc(Nc2ncc(Br)c(Nc3ccc4nccnc4c3P(C)(C)=O)n2)c(OC)cc1N1CCC(N2CCN(CC3CN(c4cccc(C5CCC(=O)NC5=O)c4)C3)CC2)CC1 (stereo not drawn) [Example 226, 3-(3-(3-((4-(1-(4-((5-bromo-4-((5-(dimethylphosphoryl)quinoxalin-6-yl)amino)pyrimidin-2-yl)amino)-2-ethyl-5-methoxyphenyl)piperidin-4-yl)piperazin-1-yl)methyl)azetidin-1-yl)phenyl)piperidine-2,6-dione]",DTC Dmax (%),[1],77.91%
same,DC50,[1],26.6 nM
same,Dmax,[2],66.9%
same,DC50,[2],31.4 nM
"CCc1cc(Nc2ncc(Br)c(Nc3ccc4nccnc4c3P(C)(C)=O)n2)c(OC)cc1N1CCC(N2CCN(C[C@@H]3CCN(c4ccc5c(c4)C(=O)N(C4CCC(=O)NC4=O)C5=O)C3)CC2)CC1 (stereo partly drawn) [Example 235, 5-((S)-3-((4-(1-(4-((5-bromo-4-((5-(dimethylphosphoryl)quinoxalin-6-yl)amino)pyrimidin-2-yl)amino)-2-ethyl-5-methoxyphenyl)piperidin-4-yl)piperazin-1-yl)methyl)pyrrolidin-1-yl)-2-(2,6-dioxopiperidin-3-yl)isoindoline-1,3-dione]",DTC Dmax (%),[1],81.09%
same,DC50,[1],17.5 nM
same,Dmax,[2],78%
same,DC50,[2],30.1 nM
"COc1cc(N2CCC(N3C[C@@H]4C[C@H]3CN4CCC3CCN(c4cc(F)c(C5CCC(=O)NC5=O)c(F)c4)CC3)CC2)c(C)cc1Nc1ncc(Br)c(Nc2ccc3nccnc3c2P(C)(C)=O)n1 (stereo partly drawn) [Example 268, 3-(4-(4-(2-((1S,4S)-5-(1-(4-((5-bromo-4-((5-(dimethylphosphoryl)quinoxalin-6-yl)amino)pyrimidin-2-yl)amino)-5-methoxy-2-methylphenyl)piperidin-4-yl)-2,5-diazabicyclo[2.2.1]heptan-2-yl)ethyl)piperidin-1-yl)-2,6-difluorophenyl)piperidine-2,6-dione]",DTC Dmax (%),[1],93.75%
same,DC50,[1],22 nM
same,Dmax,[2],90.5%
same,DC50,[2],33.5 nM
"CCc1cc(Nc2ncc(Br)c(Nc3ccc4nccnc4c3P(C)(C)=O)n2)c(OC)cc1N1CCC(N2CCN(CC3CN(c4ccc(C5CCC(=O)NC5=O)c(C#N)c4)C3)CC2)CC1 (stereo not drawn) [Example 251, 5-(3-((4-(1-(4-((5-bromo-4-((5-(dimethylphosphoryl)quinoxalin-6-yl)amino)pyrimidin-2-yl)amino)-2-ethyl-5-methoxyphenyl)piperidin-4-yl)piperazin-1-yl)methyl)azetidin-1-yl)-2-(2,6-dioxopiperidin-3-yl)benzonitrile]",DTC Dmax (%),[1],82.01%
same,DC50,[1],7.72 nM
same,Dmax,[2],87%
same,DC50,[2],2.93 nM
"CCc1cc(Nc2ncc(Br)c(Nc3ccc4c(=O)n(C)ccc4c3P(C)(C)=O)n2)c(OC)cc1N1CCC(N2CCN(CCc3cccc4c3n(C)c(=O)n4C3CCC(=O)NC3=O)CC2)CC1 (stereo not drawn) [Example 705, 3-(4-(2-(4-(1-(4-((5-bromo-4-((5-(dimethylphosphoryl)-2-methyl-1-oxo-1,2-dihydroisoquinolin-6-yl)amino)pyrimidin-2-yl)amino)-2-ethyl-5-methoxyphenyl)piperidin-4-yl)piperazin-1-yl)ethyl)-3-methyl-2-oxo-2,3-dihydro-1H-benzo[d]imidazol-1-yl)piperidine-2,6-dione]",DTC Dmax (%),[1],88.58%
same,DC50,[1],1.53 nM
same,Dmax,[2],95.3%
same,DC50,[2],4.56 nM
"CCc1cc(Nc2ncc(Br)c(Nc3ccc4nccnc4c3P(C)(C)=O)n2)c(OC)cc1N1CCC(N2CCN(C(=O)[C@H]3C[C@H](N(C)c4ccc5c(c4)C(=O)N(C4CCC(=O)NC4=O)C5=O)C3)CC2)CC1 (stereo partly drawn) [Example 236, 5-(((1r,3r)-3-(4-(1-(4-((5-bromo-4-((5-(dimethylphosphoryl)quinoxalin-6-yl)amino)pyrimidin-2-yl)amino)-2-ethyl-5-methoxyphenyl)piperidin-4-yl)piperazine-1-carbonyl)cyclobutyl)(methyl)amino)-2-(2,6-dioxopiperidin-3-yl)isoindoline-1,3-dione]",DTC Dmax (%),[1],90.89%
same,DC50,[1],6.3 nM
same,Dmax,[2],83%
same,DC50,[2],33.5 nM
"CCc1cc(Nc2ncc(Br)c(Nc3ccc4nc(C)ccc4c3P(C)(C)=O)n2)c(OC)cc1N1CCC(N2CCN(CCc3ccc4c(cnn4C4CCC(=O)NC4=O)c3)CC2)CC1 (stereo not drawn) [Example 211, 3-(5-(2-(4-(1-(4-((5-bromo-4-((5-(dimethylphosphoryl)-2-methylquinolin-6-yl)amino)pyrimidin-2-yl)amino)-2-ethyl-5-methoxyphenyl)piperidin-4-yl)piperazin-1-yl)ethyl)-1H-indazol-1-yl)piperidine-2,6-dione]",DTC Dmax (%),[1],94.88%
same,DC50,[1],2.72 nM
same,Dmax,[2],91.4%
same,DC50,[2],4.75 nM
"CCc1cc(Nc2ncc(Br)c(Nc3ccc4nccnc4c3P(C)(C)=O)n2)c(OC)cc1N1CCC(N2CCN(C[C@H]3C[C@H](N(C)c4cccc(C5CCC(=O)NC5=O)c4)C3)CC2)CC1 (stereo partly drawn) [Example 307, 3-(3-(((1r,3r)-3-((4-(1-(4-((5-bromo-4-((5-(dimethylphosphoryl)quinoxalin-6-yl)amino)pyrimidin-2-yl)amino)-2-ethyl-5-methoxyphenyl)piperidin-4-yl)piperazin-1-yl)methyl)cyclobutyl)(methyl)amino)phenyl)piperidine-2,6-dione]",DTC Dmax (%),[1],73.68%
same,DC50,[1],43.3 nM
same,Dmax,[2],87.4%
same,DC50,[2],77.1 nM
"CCc1cc(Nc2ncc(Br)c(Nc3ccc4nc(C(F)(F)F)ccc4c3P(C)(C)=O)n2)c(OC)cc1N1CCC(N2CCN(C(=O)C3CN(c4ccc5c(c4)CN(C4CCC(=O)NC4=O)C5=O)C3)CC2)CC1 (stereo not drawn) [Example 434, 3-(5-(3-(4-(1-(4-((5-bromo-4-((5-(dimethylphosphoryl)-2-(trifluoromethyl)quinolin-6-yl)amino)pyrimidin-2-yl)amino)-2-ethyl-5-methoxyphenyl)piperidin-4-yl)piperazine-1-carbonyl)azetidin-1-yl)-1-oxoisoindolin-2-yl)piperidine-2,6-dione]",DTC Dmax (%),[1],85.05%
same,DC50,[1],4.43 nM
same,Dmax,[2],88.2%
same,DC50,[2],9.32 nM
"CCc1cc(Nc2ncc(Br)c(Nc3ccc4nccnc4c3P(C)(C)=O)n2)c(OC)cc1N1CCC(N2CCN(C3CC4(CCN(c5ccc(C6CCC(=O)NC6=O)cc5)CC4)C3)CC2)CC1 (stereo not drawn) [Example 311, 3-(4-(2-(4-(1-(4-((5-bromo-4-((5-(dimethylphosphoryl)quinoxalin-6-yl)amino)pyrimidin-2-yl)amino)-2-ethyl-5-methoxyphenyl)piperidin-4-yl)piperazin-1-yl)-7-azaspiro[3.5]nonan-7-yl)phenyl)piperidine-2,6-dione]",DTC Dmax (%),[1],77.19%
same,DC50,[1],31.8 nM
same,Dmax,[2],76.3%
same,DC50,[2],78.2 nM
"CCc1cc(Nc2ncc(Br)c(Nc3ccc4scnc4c3P(C)(C)=O)n2)c(OC)cc1N1CCC(N2CCN(CCc3cc(F)c(C4CCC(=O)NC4=O)c(F)c3)CC2)CC1 (stereo not drawn) [Example 206, 3-(4-(2-(4-(1-(4-((5-bromo-4-((4-(dimethylphosphoryl)benzo[d]thiazol-5-yl)amino)pyrimidin-2-yl)amino)-2-ethyl-5-methoxyphenyl)piperidin-4-yl)piperazin-1-yl)ethyl)-2,6-difluorophenyl)piperidine-2,6-dione]",DTC Dmax (%),[1],94.22%
same,DC50,[1],9.26 nM
same,Dmax,[2],92.1%
same,DC50,[2],20.9 nM
"CCc1cc(Nc2ncc(Br)c(Nc3ccc4nc(C(F)(F)F)ccc4c3P(C)(C)=O)n2)c(OC)cc1N1CCC(N2CCN(CCC3CCN(c4cc(F)c(C5CCC(=O)NC5=O)c(F)c4)CC3)CC2)CC1 (stereo not drawn) [Example 437, 3-(4-(4-(2-(4-(1-(4-((5-bromo-4-((5-(dimethylphosphoryl)-2-(trifluoromethyl)quinolin-6-yl)amino)pyrimidin-2-yl)amino)-2-ethyl-5-methoxyphenyl)piperidin-4-yl)piperazin-1-yl)ethyl)piperidin-1-yl)-2,6-difluorophenyl)piperdine-2,6-dione]",DTC Dmax (%),[1],83.88%
same,DC50,[1],14.9 nM
same,Dmax,[2],91.2%
same,DC50,[2],28 nM
"CCc1cc(Nc2ncc(Br)c(Nc3ccc4nccnc4c3P(C)(C)=O)n2)c(OC)cc1N1CCC(N2CCN(CCCCc3cc(F)c(C4CCC(=O)NC4=O)c(F)c3)CC2)CC1 (stereo not drawn) [Example 282, 3-(4-(4-(4-(1-(4-((5-bromo-4-((5-(dimethylphosphoryl)quinoxalin-6-yl)amino)pyrimidin-2-yl)amino)-2-ethyl-5-methoxyphenyl)piperidin-4-yl)piperazin-1-yl)butyl)-2,6-difluorophenyl)piperidine-2,6-dione]",DTC Dmax (%),[1],93.51%
same,DC50,[1],15.2 nM
same,Dmax,[2],85%
same,DC50,[2],21.5 nM
